In experiment [1] the test system is C. neoformans H99. The experiment is described as follows: Antifungal susceptibility testing, microbroth dilution MIC. In kind it is cell-based. The conditions noted are these: Cryptococcus neoformans, read-out: MIC (μg/mL) against fungi H99. The source says: (§1) Compound library. The thiosemicarbazone derivatives Triapine and COTI-2 were purchased from Med Chem Express (MCE). The other 87 thiosemicarbazones used in this study were previously synthesized by our collaborators (1, 2). Their structures are shown in Table 1 and Table S1 to help the reader clearly understand the relationship between structure and activity.
(§2) Strains and culture conditions. Clinically derived C. albicans isolates, including G5, F5, and Gu5, were kindly provided by Professor Joachim Morschhäuser of the University of Würzburg. Other clinical C. albicans isolates were kindly donated by Professor Qingguo Qi of Shandong University and Qianfoshan Hospital of Shandong Province Other Candida strains were obtained from Jinan Central Hospital.
(§3) The zap1 mutant and its complemented strain were kindly provided by Professor Aaron P. Mitchell of Carnegie Mellon University (3). The C. neoformans strains used in this study was kindly donated by Professor Guojian Liao of Southwest University and A. fumigatus strain used in this study was provided by Professor Ling Lu of Nanjing Normal University. […]
(§4) Antifungal susceptibility testing. To determine in vitro antifungal activities, the microbroth dilution method was carried out in RPMI1640 medium according to the guidelines of the Clinical and Laboratory Standards Institute (4, 5). The initial concentration in RPMI1640 medium was 1 × 10^3 CFU/mL for the C. albicans and C. neoformans suspensions but 1 × 10^4 CFU/mL for A. fumigatus. The range of final drug concentrations was 0.0156–64 μg/mL. The plates were incubated at35°C for 24 […]
(§5) h (for C. albicans, C. krusei, C. tropicalis, C. parapsilosis) or 48 h (for C. neoformans, A. fumigatus). The MIC was determined based on visible growth inhibition compared with the control. All experiments were performed in duplicate. […]

For experiment [2], the system named is A. fumigatus AF293. The experiment is described as above. It is filed as cell-based. Particulars: Aspergillus fumigatus, read-out: MIC (μg/mL) against fungi AF293.
Excerpt: as §1, §2, §3, §4, §5

In experiment [3] the test system is C. albicans SC5314. The experiment is described as above. Particulars: Candida albicans, read-out: MIC (μg/mL) against fungi SC5314. It is filed as cell-based.
Excerpt: as §1, §2
The zap1 mutant and its complemented strain were kindly provided by Professor Aaron P. Mitchell of Carnegie Mellon University (3). The C. neoformans strains used in this study was kindly donated by Professor Guojian Liao of Southwest University and A. fumigatus strain used in this study was provided by Professor Ling Lu of Nanjing Normal University. Before in vitro and in vivo experiments, all C. albicans strains were grown on YPD agar plates. After culturing at 30°C for 24 h, colonies of each strain were cultured in liquid YPD medium at 30°C with continuous shaking […]
as §4, §5

Experiment [4] concerns C. albicans SC5314. The experiment is described as follows: qPCR of genes associated with ribosome biogenesis. It is filed as cell-based, Candida albicans. The conditions noted are these: CPX 0.5 or 2 μg/mL 8 h; DFO 64 µg/mL 6 h; TPEN 0.05 or 0.2 μg/mL 6 h. On the procedure: Determination of SOD activity. SOD activity was measured using the Superoxide Dismutase Activity Assay Kit (Njjcbio, Nanjing, China) following the manufacturer's instructions. An overnight culture of C. albicans SC5314 was adjusted to 1 × 10^7 cells/mL with RPMI1640 medium and treated with 19ak at a final concentration of 0, 0.125, 0.25, 0.5, or 1 μg/mL for 6 h. After collection by centrifugation, the cells were broken by glass beads in extraction buffer and centrifuged at 4°C. The absorbance of the supernatant of each sample was measured with a microplate reader at450 nm.
Determination of catalase (CAT) activity. CAT activity was measured by using a Catalase Assay Kit (Solarbio, Beijing, China) following the manufacturer's instructions. An overnight culture of C. albicans SC5314 was adjusted to 1 × 10^6 cells/mL with RPMI1640 medium and treated as described above for SOD activity.
The decomposition of H2O2 is directly accompanied by a decrease in absorbance at 240 nm, and the difference in absorbance per unit time (ΔA240) is a measure of […]
Quantitative real-time polymerase chain reaction (qPCR) analysis. C. albicans SC5314 cells (1 × 10^6 cells/mL) were incubated with or without 19ak (0.5,2 […]
Total RNA was extracted using the hot phenol method, and the RNA quality was analyzed using a spectrophotometer (Eppendorf, Hamburg, Germany). The RNA was converted to cDNA using a cDNA Reverse
Transcription kit (Accurate Biotechnology, Hunan, China). PCR detection based on SYBR Green was performed on an Eppendorf real-time PCR system (Eppendorf, […]
Drug resistance study. Drug resistance studies were carried out by repeatedly treating C. albicans with an antifungal agent followed by MIC determination using […]

In brackets after ≈: the same amount, converted by molar mass. Where two headings read alike, the source gives them in different places.

On to `C/C(=N\NC(=S)Nc1cccc(Br)c1)c1ccccn1` [Compound 19q], for which the MIC was determined as 0.25 µg/mL (≈ 0.716 µM) in experiment [1] (H99, 48 h); 1 µg/mL (≈ 2.86 µM) in experiment [2] (AF293, 48 h); 0.5 µg/mL (≈ 1.43 µM) in experiment [3] (SC5314, 24 h).
In the same order, the values of `S=C(N/N=C/c1ccccn1)N1CCOCC1` [Compound 19ao] are 0.5 µg/mL (≈ 2 µM), 8 µg/mL (≈ 32 µM) and 2 µg/mL (≈ 7.99 µM).
In the same order, the values of `COc1ccc(NC(=S)N/N=C(\C)c2ccccn2)cc1` [Compound 19s] are 0.25 µg/mL (≈ 0.832 µM), 8 µg/mL (≈ 26.6 µM) and 2 µg/mL (≈ 6.66 µM).
The matching figures for `S=C(N/N=C(\c1ccccc1)c1ccccn1)Nc1ccccc1Br` [Compound 19x]: 0.5 µg/mL (≈ 1.22 µM), 16 µg/mL (≈ 38.9 µM) and 1 µg/mL (≈ 2.43 µM).
For the compound `C/C(=N\NC(=S)Nc1ccccc1Br)c1ccccn1` [Compound 19r], the MIC in experiment [1] (H99, 48 h) came to 8 µg/mL (≈ 22.9 µM); in experiment [2] (AF293, 48 h) it was 8 µg/mL (≈ 22.9 µM); in experiment [3] (SC5314, 24 h), 1 µg/mL (≈ 2.86 µM).
As to `Cc1cc(C2CCCCC2)n(O)c(=O)c1` [CPX, ciclopirox olamine], in experiment [4], the “Expression of genes associated with ribosome biogenesis (qPCR)” value is “no obvious effect”.
Turning to `NC(=S)NN=Cc1ncccc1N` [Triapine, 3-aminopyridine-2-carboxaldehyde thiosemicarbazone, reference compound], the MIC turned out to be 4 µg/mL (≈ 20.5 µM) in experiment [1] (H99, C. neoformans wild-type strain, 48 h); 32 µg/mL (≈ 164 µM) in experiment [2] (AF293, standard strain of A. fumigatus, 48 h); 32 µg/mL (≈ 164 µM) in experiment [3] (SC5314, C. albicans wild-type strain, RPMI1640, 35°C, 24 h).
